{"source": "patent US11952328B2", "about": "“Selective ship inhibitors for treating disease” (THE RESEARCH FOUNDATION FOR THE STATE UNIVERSITY OF NEW YORK, priority 2018, dated 2024)", "key": {"NK cells and T cells": {"tested_on": "NK cells and T cells", "assay": "NK and T cell numbers, maturation and FasL expression by flow cytometry after two-day treatment", "assay_type": "in vivo, mice", "text": "FIGS. 5A-5I show the effects of SHIP1 inhibitor as a chemotherapeutic. […] FIG. 5D and FIG. 5E show the representative histograms and box-and-whisker plots of FasL expression by NK cells from C56BL/6 (p=0.0002; Unpaired t test with Welch's correction) or RAG1−/− (p<0.0001; Mann-Whitney U test) tumor challenged, SHIP inhibitor or vehicle treated hosts. […] (NK cells p=0.0192; Unpaired t test with Welch's correction. T cells p=0.0659; Mann-Whitney U test). Additionally, FIGS. 5A-5G show the analysis by flow cytometry on day 3 after hosts receive SHIP inhibitor or vehicle for two consecutive days. NK cells are defined as NK1.1+CD3ε−. The graphs are representative of at least two independent experiments with at least four SHIP inhibitor and vehicle treated mice. […] Viability is expressed as frequency at a given concentration expressed as a percentage of solvent only treated cells. The kill curve summarizes pooled data from three independent experiments using six replicate wells/concentration with mean ±SEM indicated (n=18 per group. One-way ANOVA with Dunnett's multiple comparisons. 0 pM vs. 20 pM Adjusted p value =0.0001. 0 pM vs. 15 pM Adjusted p value =0.0001. 0 pM vs. 10 pM Adjusted p value =0.0001. 0 pM vs. 7.5 pM Adjusted p value =0.0001. 0 pM vs. 5 pM Adjusted p value =0.0001).\nNK cells are able to directly kill target cells through several different mechanisms including both production of perforin and granzymes and induction of apoptosis via Fas-FasL signaling (Arase, H. et al., Fas-mediated cytotoxicity by freshly isolated natural killer cells. J Exp Med. (1995); 181: 1235-1238; Zamai, L. et al., Natural killer (NK) cell-mediated cytotoxicity: differential use of TRAIL and Fas ligand by immature and mature primary human NK cells. J Exp Med. (1998); 188: 2375-2380). […] SHIP1 was recently shown to be recruited to CD95/Fas to set a threshold for induction of Caspase 8, and thereby, a threshold for induction of apoptosis (Park, M. Y. et al., Impaired T-cell survival promotes mucosal inflammatory disease in SHIP1-deficient mice. Mucosal Immunol. (2014); 7: 1429-1439). This pathway might contribute to 3AC-mediated killing of lymphoma cells in a host-extrinsic fashion and, possibly, even to NK cell mediated clearance of tumor in vivo. To explore this possibility, whether 3AC induces FasL, the death ligand, on cytotoxic host cells present in the tumor site was examined. […] This is consistent with what has been previously reported with multiple myeloma, myeloid leukemias and T cell leukemia, and that others have recently reported in preB ALL (Park, M. Y. et al., Impaired T-cell survival promotes mucosal inflammatory disease in SHIP1-deficient mice. Mucosal Immunol. (2014); 7: 1429-1439; Brooks, R. et al., SHIP1 inhibition increases immunoregulatory capacity and triggers apoptosis of hematopoietic cancer cells. J Immunol. (2010); 184: 3582-3589; Fuhler, G. M. et al., Therapeutic potential of SH2 domain-containing inositol-5′-phosphatase 1 (SHIP1) and SHIP2 inhibition in cancer. Mol Med. (2012); 18: 65-75; Chen, Z. et al, Signalling thresholds and negative B-cell selection in acute lymphoblastic leukaemia. Nature. (2015)) . […] Therefore, the improved tumor clearance and survival following acute 3AC treatment in vivo may result from both a chemotherapeutic effect and enhanced immune control."}, "MC-38": {"tested_on": "MC-38", "assay": "MC-38 viability following in vitro treatment", "assay_type": "cell-based, mice", "conditions": "in vitro 24 h; all concentrations N.S. vs solvent only", "description": "FIG. 7A and FIG. 7B show CT26 (FIG. 7A) and MC-38 (FIG. 7B) viability following in vitro treatment with 3AC for 24 h at indicated doses. Relative viability is expressed as frequency compared to solvent only treated cells. Kill curve summarizes pooled data from three independent experiments using six replicate wells/concentration with mean±SEM indicated. BALB/C mice were challenged with subcutaneous injection of CT26 colon carcinoma cells in the right flank. Mice were treated with either 2 consecutive days of 3AC or vehicle control each week as in FIG. 4A. Tumor size at […] 28 days (FIG. 7C), and tumor weight on day 28 determined after dissection of tumor (FIG. 7E). […] C57BL/6 mice were challenged with subcutaneous injection of MC-38 colon carcinoma cells in the right flank. Mice were treated with either 2 consecutive days of SHIP inhibitor or vehicle control each week as in FIG. 4A. Tumor size at 14, 21 and 25 days (FIG. 7D), and tumor weight (FIG. 7F) on day 25 were determined after dissection of tumor. […] FIG. 7A (n=18 per group. One-way ANOVA with Dunnett's multiple comparisons. 0 μM vs. 20 μM Adjusted p value=0.0463. All other concentrations of SHIP inhibitor compared with solvent only N.S.). FIG. 7B (n=18 per group. One-way ANOVA with Dunnett's multiple comparisons. All concentrations of SHIP inhibitor compared with solvent only N.S.). […]"}}, "data": [{"smiles": "CC(C)CCC[C@@H](C)[C@H]1CC[C@H]2[C@@H]3CCC4C[C@H](N)CC[C@]4(C)[C@H]3CC[C@]12C", "note": "(stereo partly drawn) [Compound 3AC, 3-α-aminocholestane]", "values": [{"measurement": "FasL expression, splenic NK cells", "setting": "NK cells and T cells; C57BL/6 mice, vs vehicle", "result": "small, but significantly increased frequency"}, {"measurement": "terminal maturation of the peripheral NK cell compartment", "setting": "NK cells and T cells; spleen, naive or tumor challenged C57BL/6 hosts, vs vehicle", "result": "significantly increased"}, {"measurement": "number of NK cells at the tumor site in the peritoneal cavity", "setting": "NK cells and T cells; tumor challenged C57BL/6 hosts, vs vehicle", "result": "significantly increased"}, {"measurement": "FasL expression of host NK cells and T cells at the tumor site", "setting": "NK cells and T cells; tumor challenged hosts, vs vehicle", "result": "profound acquisition of FasL"}, {"measurement": "number of splenic NK cells", "setting": "NK cells and T cells; two days of treatment vs vehicle", "result": "decreased numbers"}, {"measurement": "MC-38 viability (direct killing)", "setting": "MC-38", "result": "resistant to direct killing"}]}]}
